Measurements published in patent US6737383B1, “Herbicidal oxadiazolidines” (priority 1999, dated 2004).

Tests used:
[1] = test system: Italian ryegrass; assay: Test E Italian ryegrass; format: in vivo, Lolium multiflorum; settings: Preemergence
[2] = test system: bermuda-grass; assay: Test D bermudagrass; format: in vivo, Cynodon dactylon; settings: Preemergence, 0 to 100 scale
Procedure, shortened: (§1)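 Seeds were sown in greenhouse pots, one species per pot or compartment. Compounds were in a non-phytotoxic solvent mixture with surfactant; preemergence applications went on the sandy loam surface within one day of planting. Injury was rated visually after 14 to 21 days, 0 (none) to 100 (complete control).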

[3] = test system: Green foxtail; assay: Test D green foxtail; format: in vivo
Procedure, shortened: as §1

[4] = test system: winter barley; assay: Test E winter barley; format: in vivo, Hordeum vulgare; settings: Preemergence
[5] = test system: winter wheat; assay: Test E winter wheat; format: in vivo, Triticum aestivum; settings: Preemergence
[6] = test system: purple nutsedge; assay: Test B pre/postemergence purple nutsedge; format: in vivo, Cyperus rotundus
Procedure, shortened: (§2)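 Herbicidal effect was estimated by eye on a ten-point control scale after plants spent twelve to sixteen days in a greenhouse following soil or foliar treatment. Foliar sprays targeted plants at one to four leaves; all doses were formulated in a non-phytotoxic solvent with surfactant.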

[7] = test system: winter wheat; assay: Test E winter wheat; format: in vivo, Triticum aestivum; settings: Postemergence; for Plant response rating, Wheat (winter): 0 to 100 scale
Procedure, shortened: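 Greenhouse test: compounds in non-phytotoxic solvent with surfactant; for postemergence, sprayed on plants at 1- to 4-leaf stage grown in 60:40 sandy loam/potting mix. Injury rated visually against untreated controls after about 21 to 28 days.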

[8] = test system: wild oat; assay: Test E wild oat; format: in vivo, Avena fatua; settings: Preemergence
[9] = test system: Green foxtail; assay: Test D green foxtail; format: in vivo; settings: Preemergence, 0 to 100 scale
Procedure, shortened: as §1

[10] = test system: blackgrass; assay: Test B pre/postemergence blackgrass; format: in vivo, Alopecurus myosuroides
Procedure, shortened: as §2

[11] = test system: dallisgrass; assay: Test D dallisgrass; format: in vivo, Paspalum dilatatum; settings: Preemergence, 0 to 100 scale
Procedure, shortened: as §1

[12] = test system: green foxtail; assay: Test E green foxtail; format: in vivo, Setaria viridis; settings: Preemergence
[13] = test system: giant foxtail; assay: Test B pre/postemergence giant foxtail; format: in vivo, Setaria faberii
Procedure, shortened: as §2

[14] = test system: wheat; assay: Test B pre/postemergence wheat; format: in vivo, Triticum aestivum
Procedure, shortened: as §2

[15] = test system: blackgrass; assay: Test E blackgrass; format: in vivo, Alopecurus myosuroides; settings: Preemergence
[16] = Rate 31 g/ha, 0 to 100 scale, 0 no effect, 100 complete control
[17] = Rate 62 g/ha, 0 to 100 scale, 0 no effect, 100 complete control
[18] = Rate 125 g/ha, 0 to 100 scale (0 no effect, 100 complete control)
[19] = Rate 500 g/ha, 0 to 100 scale where 0 is no effect and 100 is complete control
[20] = Rate 16 g/ha, 0 no injury, 100 complete control
[21] = Rate 32 g/ha, 0 no injury, 100 complete control
[22] = Rate 64 g/ha, 0 no injury, 100 complete control
[23] = Rate 125 g/ha, 0 no injury, 100 complete control
[24] = Rate 64 g/ha, Preemergence; 0 to 100 scale, 0 no injury, 100 complete control
[25] = Rate 125 g/ha, Preemergence; 0 to 100 scale, 0 no injury, 100 complete control
[26] = Preemergence, Rate 62 g/ha, scale of 0 to 10 where 0 is no effect and 10 is complete control
[27] = Preemergence, Rate 250 g/ha, scale of 0 to 10 where 0 is no effect and 10 is complete control
[28] = Preemergence, Rate 500 g/ha, scale of 0 to 10 where 0 is no effect and 10 is complete control
[29] = Rate 62 g/ha, Postemergence, scale of 0 to 10 where 0 is no effect and 10 is complete control
[30] = Rate 125 g/ha, Preemergence, scale of 0 to 10 where 0 is no effect and 10 is complete control
[31] = Rate 500 g/ha, Postemergence, scale 0 to 10, 0 no effect, 10 complete control

CC(C)N(C(=O)n1oc(=O)n(C2CC2)c1=O)c1ccc(F)cc1 [Compound 242]
Plant response rating, I. Ryegrass [1, 16]: 65
Plant response rating, I. Ryegrass [1, 17]: 70
Plant response rating, I. Ryegrass [1, 18]: 95
I. Ryegrass plant response rating (0 to 100 scale) ([1]; Rate 250 g/ha): 98
Plant response rating, I. Ryegrass [1, 19]: 100
Plant response rating, Bermudagrass [2, 20]: 80
Plant response rating, Bermudagrass [2, 21]: 85
Plant response rating, Bermudagrass [2, 22]: 85
Plant response rating, Bermudagrass [2, 23]: 98
Plant response rating, Bermudagrass ([2]; Rate 250 g/ha): 100
Plant response rating, Bermudagrass ([2]; Rate 500 g/ha): 100
Plant response rating, Green foxtail ([3]; Preemergence; Rate 16 g/ha; 0 to 100 scale, 0 no injury, 100 complete control): 80
Plant response rating, Green foxtail ([3]; Preemergence; Rate 32 g/ha; 0 to 100 scale, 0 no injury, 100 complete control): 100
Plant response rating, Green foxtail ([3]; Rate 16 g/ha; Preemergence; 0 to 100 scale, 0 no injury, 100 complete control): 80
Green foxtail plant response rating [3, 24]: 100
Plant response rating, Green foxtail [3, 24]: 100
Green foxtail plant response rating [3, 25]: 100
Plant response rating, Green foxtail [3, 25]: 100
Plant response rating, Green foxtail ([3]; Rate 250 g/ha; Preemergence; 0 to 100 scale): 100
Plant response rating, Green foxtail ([3]; Rate 500 g/ha, Preemergence; 0 to 100 scale): 100
Plant response rating, Barley (winter) [4, 16]: 30
Plant response rating, Barley (winter) [4, 17]: 30
Plant response rating, Barley (winter) [4, 18]: 40
Barley (winter) plant response rating (0 to 100 scale) ([4]; Rate 250 g/ha): 60
Plant response rating, Barley (winter) [4, 19]: 85
Plant response rating, Wheat (winter) [5, 16]: 30
Plant response rating, Wheat (winter) [5, 17]: 40
Plant response rating, Wheat (winter) [5, 18]: 65
Wheat (winter) plant response rating (0 to 100 scale) ([5]; Rate 250 g/ha): 55
Plant response rating, Wheat (winter) [5, 19]: 95
Nutsedge plant response rating [6, 26]: 10
Nutsedge plant response rating [6, 27]: 10
Plant response rating, Nutsedge [6, 28]: 10
Nutsedge plant response rating [6, 29]: 0
Nutsedge plant response rating [6, 30]: 10
Nutsedge plant response rating [6, 31]: 5
Plant response rating, Wheat (winter) ([7]; Rate 31 g/ha, 0 no effect, 100 complete control): 55
Plant response rating, Wheat (winter) ([7]; Rate 62 g/ha): 65
Plant response rating, Wheat (winter) ([7]; Rate 125 g/ha, 0 is no effect, 100 is complete control): 10
Wheat (winter) plant response rating ([7]; Rate 250 g/ha, 0 to 100 scale where 0 is no effect and 100 is complete control): 10
Plant response rating, Wheat (winter) ([7]; Rate 500 g/ha, 0 is no effect, 100 is complete control): 90
Plant response rating, Wild oat [8, 16]: 50
Plant response rating, Wild oat [8, 17]: 60
Plant response rating, Wild oat [8, 18]: 60
Wild oat plant response rating (0 to 100 scale) ([8]; Rate 250 g/ha): 98
Plant response rating, Wild oat [8, 19]: 100
Plant response rating, Green foxtail ([9]; Rate 250 g/ha): 100
Plant response rating, Green foxtail ([9]; Rate 500 g/ha): 100
Blackgrass plant response rating [10, 26]: 9
Blackgrass plant response rating [10, 27]: 10
Plant response rating, Blackgrass [10, 28]: 10
Blackgrass plant response rating [10, 29]: 8
Blackgrass plant response rating ([10]; Rate 125 g/ha, Postemergence, scale 0 to 10): 9
Blackgrass plant response rating [10, 30]: 10
Plant response rating (0 to 10; 0 is no effect, 10 is complete control), Blackgrass ([10]; Rate 250 g/ha, Postemergence): 9
Blackgrass plant response rating [10, 31]: 9
Plant response rating, Dallisgrass [11, 20]: 65
Plant response rating, Dallisgrass [11, 21]: 85
Plant response rating, Dallisgrass [11, 22]: 98
Plant response rating, Dallisgrass [11, 23]: 98
Plant response rating, Dallisgrass ([11]; Rate 250 g/ha): 100
Plant response rating, Dallisgrass ([11]; Rate 500 g/ha): 100
Plant response rating, Green foxtail [12, 16]: 50
Plant response rating, Green foxtail [12, 18]: 70
Green foxtail plant response rating (0 to 100 scale) ([12]; Rate 250 g/ha): 98
Plant response rating, Green foxtail [12, 19]: 100
Giant foxtail plant response rating [13, 26]: 10
Giant foxtail plant response rating [13, 27]: 10
Plant response rating, Giant foxtail [13, 28]: 10
Giant foxtail plant response rating [13, 29]: 7
Giant foxtail plant response rating [13, 30]: 10
Plant response rating (0 to 10; 0 is no effect, 10 is complete control), Giant foxtail ([13]; Rate 250 g/ha, Postemergence): 8
Giant foxtail plant response rating [13, 31]: 9
Wheat plant response rating [14, 26]: 5
Wheat plant response rating [14, 27]: 9
Plant response rating, Wheat [14, 28]: 10
Wheat plant response rating [14, 29]: 4
Wheat plant response rating [14, 30]: 7
Wheat plant response rating [14, 31]: 8
Plant response rating, Blackgrass [15, 16]: 55
Plant response rating, Blackgrass [15, 17]: 70
Plant response rating, Blackgrass [15, 18]: 95
Blackgrass plant response rating (0 to 100 scale) ([15]; Rate 250 g/ha): 100
Plant response rating, Blackgrass [15, 19]: 98
